From the kinase profiling compilation of Christmann-Franck et al. (2016)

Tests used:
Assay in all cases: KINOMEscan competition binding
Details in all cases: compound 10.0 µM
ANKK1 (human) = ANKK1 (human) (UniProt Q8NFD2)
CDK15 (human) = CDK15 (human) (UniProt Q96Q40)
CDK8 (human) = CDK8 (human) (UniProt P49336)
CHEK2 (human) = CHEK2 (human) (UniProt O96017)
CSNK2A1 (human) = CSNK2A1 (human) (UniProt P68400)
CaMK1 (human) = CaMK1 (human) (UniProt Q14012)
DAPK1 (human) = DAPK1 (human) (UniProt P53355)
EPHA2 (human) = EPHA2 (human) (UniProt P29317)
FGR (human) = FGR (human) (UniProt P09769)
FLT1 (human) = FLT1 (human) (UniProt P17948)
HCK (human) = HCK (human) (UniProt P08631)
IKBKB (human) = IKBKB (human) (UniProt O14920)
MAP3K1 (human) = MAP3K1 (human) (UniProt Q13233)
MAP3K3 (human) = MAP3K3 (human) (UniProt Q99759)
MAP3K4 (human) = MAP3K4 (human) (UniProt Q9Y6R4)
MAP4K4 (human) = MAP4K4 (human) (UniProt O95819)
MAPK13 (human) = MAPK13 (human) (UniProt O15264)
MKNK1 (human) = MKNK1 (human) (UniProt Q9BUB5)
NEK1 (human) = NEK1 (human) (UniProt Q96PY6)
NTRK3 (human) = NTRK3 (human) (UniProt Q16288)
NUAK2 (human) = NUAK2 (human) (UniProt Q9H093)
PDGFRA (human) = PDGFRA (human) (UniProt P16234)
PIK3C2B (human) = PIK3C2B (human) (UniProt O00750)
PRKACA (human) = PRKACA (human) (UniProt P17612)
PRKCH (human) = PRKCH (human) (UniProt P24723)
PRKG1 (human) = PRKG1 (human) (UniProt Q13976)
PRKG2 (human) = PRKG2 (human) (UniProt Q13237)
RIOK2 (human) = RIOK2 (human) (UniProt Q9BVS4)
RPS6KA2 KD1 (human) = RPS6KA2 KD1 (human) (UniProt Q15349)
RPS6KA3 KD1 (human) = RPS6KA3 KD1 (human) (UniProt P51812)
RPS6KA5 KD1 (human) = RPS6KA5 KD1 (human) (UniProt O75582)
RPS6KA6 KD2 (human) = RPS6KA6 KD2 (human) (UniProt Q9UK32)
SIK2 (human) = SIK2 (human) (UniProt Q9H0K1)
SRPK2 (human) = SRPK2 (human) (UniProt P78362)
STK17A (human) = STK17A (human) (UniProt Q9UEE5)
TAOK3 (human) = TAOK3 (human) (UniProt Q9H2K8)
TGFBR1 (human) = TGFBR1 (human) (UniProt P36897)
TGFBR2 (human) = TGFBR2 (human) (UniProt P37173)
TLK1 (human) = TLK1 (human) (UniProt Q9UKI8)
WEE2 (human) = WEE2 (human) (UniProt P0C1S8)

Chain of MAPK13 (human) (O15264 whole entry, looked up): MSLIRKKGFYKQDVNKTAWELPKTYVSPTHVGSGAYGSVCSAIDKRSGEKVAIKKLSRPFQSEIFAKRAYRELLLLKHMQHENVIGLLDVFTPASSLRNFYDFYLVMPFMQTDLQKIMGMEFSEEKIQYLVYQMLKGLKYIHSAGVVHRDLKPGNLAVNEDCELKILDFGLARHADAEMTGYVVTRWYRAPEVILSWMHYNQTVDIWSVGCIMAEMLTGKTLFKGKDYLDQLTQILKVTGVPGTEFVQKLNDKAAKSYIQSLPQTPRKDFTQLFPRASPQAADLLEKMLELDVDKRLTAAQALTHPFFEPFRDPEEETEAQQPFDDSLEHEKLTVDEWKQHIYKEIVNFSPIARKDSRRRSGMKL
Chain of RPS6KA3 KD1 (human) (P51812 whole entry, looked up): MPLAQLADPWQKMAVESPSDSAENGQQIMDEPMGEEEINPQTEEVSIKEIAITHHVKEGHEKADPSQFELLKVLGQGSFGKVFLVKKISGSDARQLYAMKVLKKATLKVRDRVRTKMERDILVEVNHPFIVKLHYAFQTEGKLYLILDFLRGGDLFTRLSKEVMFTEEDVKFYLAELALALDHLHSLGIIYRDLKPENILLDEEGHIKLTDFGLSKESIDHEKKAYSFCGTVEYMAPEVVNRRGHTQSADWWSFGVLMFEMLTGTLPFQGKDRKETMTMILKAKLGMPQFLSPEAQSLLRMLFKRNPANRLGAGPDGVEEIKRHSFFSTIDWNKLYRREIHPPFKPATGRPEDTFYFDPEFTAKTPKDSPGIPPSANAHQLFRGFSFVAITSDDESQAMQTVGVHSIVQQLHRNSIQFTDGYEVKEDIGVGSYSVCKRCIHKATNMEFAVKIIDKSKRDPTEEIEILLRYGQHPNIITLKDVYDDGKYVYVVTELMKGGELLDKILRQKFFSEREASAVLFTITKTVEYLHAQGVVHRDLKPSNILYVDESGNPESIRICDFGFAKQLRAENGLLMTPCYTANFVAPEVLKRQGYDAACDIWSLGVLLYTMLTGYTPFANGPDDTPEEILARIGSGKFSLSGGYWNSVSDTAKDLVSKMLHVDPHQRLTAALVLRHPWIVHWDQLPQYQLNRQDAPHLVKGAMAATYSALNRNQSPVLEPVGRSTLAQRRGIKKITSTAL
Chain of PDGFRA (human) (P16234 whole entry, looked up): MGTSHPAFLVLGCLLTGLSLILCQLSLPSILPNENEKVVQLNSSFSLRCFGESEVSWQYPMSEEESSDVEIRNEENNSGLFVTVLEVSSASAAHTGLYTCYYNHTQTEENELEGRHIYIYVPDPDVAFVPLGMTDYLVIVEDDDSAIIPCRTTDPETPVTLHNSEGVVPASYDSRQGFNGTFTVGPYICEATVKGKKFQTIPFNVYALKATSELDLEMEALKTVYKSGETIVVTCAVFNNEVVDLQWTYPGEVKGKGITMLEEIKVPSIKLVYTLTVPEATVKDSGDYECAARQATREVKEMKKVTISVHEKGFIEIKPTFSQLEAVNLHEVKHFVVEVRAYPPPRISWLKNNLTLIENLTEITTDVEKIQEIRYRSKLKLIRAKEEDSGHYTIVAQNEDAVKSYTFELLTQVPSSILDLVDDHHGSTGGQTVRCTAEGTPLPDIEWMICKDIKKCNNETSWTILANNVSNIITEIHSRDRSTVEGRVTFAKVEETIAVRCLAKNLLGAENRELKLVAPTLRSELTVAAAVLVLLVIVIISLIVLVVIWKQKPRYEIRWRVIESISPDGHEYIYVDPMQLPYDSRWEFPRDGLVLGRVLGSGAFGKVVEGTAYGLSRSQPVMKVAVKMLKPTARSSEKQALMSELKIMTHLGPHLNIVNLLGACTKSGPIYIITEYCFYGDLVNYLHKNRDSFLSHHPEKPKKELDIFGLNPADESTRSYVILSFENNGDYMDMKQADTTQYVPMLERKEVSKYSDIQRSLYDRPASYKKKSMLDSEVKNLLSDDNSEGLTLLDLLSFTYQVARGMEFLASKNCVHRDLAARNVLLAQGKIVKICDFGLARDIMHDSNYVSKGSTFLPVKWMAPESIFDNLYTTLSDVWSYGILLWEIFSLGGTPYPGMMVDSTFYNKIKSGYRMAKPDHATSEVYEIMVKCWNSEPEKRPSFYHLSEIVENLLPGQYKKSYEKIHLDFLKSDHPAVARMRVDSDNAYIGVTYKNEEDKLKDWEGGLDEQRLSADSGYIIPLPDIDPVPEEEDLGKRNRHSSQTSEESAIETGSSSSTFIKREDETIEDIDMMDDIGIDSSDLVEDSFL
Chain of MAP3K3 (human) (Q99759 whole entry, looked up): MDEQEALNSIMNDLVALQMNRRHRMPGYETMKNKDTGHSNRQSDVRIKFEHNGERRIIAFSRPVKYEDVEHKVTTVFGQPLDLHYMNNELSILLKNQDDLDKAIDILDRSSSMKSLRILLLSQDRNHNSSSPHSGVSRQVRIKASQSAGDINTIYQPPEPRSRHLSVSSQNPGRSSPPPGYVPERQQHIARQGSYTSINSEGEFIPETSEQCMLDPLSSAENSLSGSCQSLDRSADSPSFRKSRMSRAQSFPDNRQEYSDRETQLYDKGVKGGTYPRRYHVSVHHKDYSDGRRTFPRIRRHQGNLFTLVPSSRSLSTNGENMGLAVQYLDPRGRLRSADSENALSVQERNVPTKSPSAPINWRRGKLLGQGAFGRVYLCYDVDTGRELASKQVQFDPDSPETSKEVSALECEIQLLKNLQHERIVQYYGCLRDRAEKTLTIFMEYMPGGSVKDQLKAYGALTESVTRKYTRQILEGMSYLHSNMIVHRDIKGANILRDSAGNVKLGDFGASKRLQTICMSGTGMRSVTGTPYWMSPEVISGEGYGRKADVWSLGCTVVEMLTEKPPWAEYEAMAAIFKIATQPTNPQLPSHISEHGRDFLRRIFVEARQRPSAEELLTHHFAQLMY
Chain of PRKCH (human) (P24723 whole entry, looked up): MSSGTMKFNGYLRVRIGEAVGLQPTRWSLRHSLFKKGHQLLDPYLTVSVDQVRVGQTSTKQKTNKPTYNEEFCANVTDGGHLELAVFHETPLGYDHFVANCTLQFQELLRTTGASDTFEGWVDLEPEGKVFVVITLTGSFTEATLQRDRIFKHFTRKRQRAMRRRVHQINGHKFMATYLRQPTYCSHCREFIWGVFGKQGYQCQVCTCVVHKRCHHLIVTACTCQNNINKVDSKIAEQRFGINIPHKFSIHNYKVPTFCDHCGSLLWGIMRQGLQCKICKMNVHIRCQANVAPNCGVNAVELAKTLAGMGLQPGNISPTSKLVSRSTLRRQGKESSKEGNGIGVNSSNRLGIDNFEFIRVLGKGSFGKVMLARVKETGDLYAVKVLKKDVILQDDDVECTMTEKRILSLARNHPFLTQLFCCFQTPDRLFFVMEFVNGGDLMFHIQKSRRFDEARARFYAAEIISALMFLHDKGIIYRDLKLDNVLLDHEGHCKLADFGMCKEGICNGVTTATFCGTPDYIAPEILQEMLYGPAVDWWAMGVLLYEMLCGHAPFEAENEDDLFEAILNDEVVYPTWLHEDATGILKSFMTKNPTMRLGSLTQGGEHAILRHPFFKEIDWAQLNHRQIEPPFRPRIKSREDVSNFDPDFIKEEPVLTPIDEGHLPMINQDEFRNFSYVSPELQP
Chain of TAOK3 (human) (Q9H2K8 whole entry, looked up): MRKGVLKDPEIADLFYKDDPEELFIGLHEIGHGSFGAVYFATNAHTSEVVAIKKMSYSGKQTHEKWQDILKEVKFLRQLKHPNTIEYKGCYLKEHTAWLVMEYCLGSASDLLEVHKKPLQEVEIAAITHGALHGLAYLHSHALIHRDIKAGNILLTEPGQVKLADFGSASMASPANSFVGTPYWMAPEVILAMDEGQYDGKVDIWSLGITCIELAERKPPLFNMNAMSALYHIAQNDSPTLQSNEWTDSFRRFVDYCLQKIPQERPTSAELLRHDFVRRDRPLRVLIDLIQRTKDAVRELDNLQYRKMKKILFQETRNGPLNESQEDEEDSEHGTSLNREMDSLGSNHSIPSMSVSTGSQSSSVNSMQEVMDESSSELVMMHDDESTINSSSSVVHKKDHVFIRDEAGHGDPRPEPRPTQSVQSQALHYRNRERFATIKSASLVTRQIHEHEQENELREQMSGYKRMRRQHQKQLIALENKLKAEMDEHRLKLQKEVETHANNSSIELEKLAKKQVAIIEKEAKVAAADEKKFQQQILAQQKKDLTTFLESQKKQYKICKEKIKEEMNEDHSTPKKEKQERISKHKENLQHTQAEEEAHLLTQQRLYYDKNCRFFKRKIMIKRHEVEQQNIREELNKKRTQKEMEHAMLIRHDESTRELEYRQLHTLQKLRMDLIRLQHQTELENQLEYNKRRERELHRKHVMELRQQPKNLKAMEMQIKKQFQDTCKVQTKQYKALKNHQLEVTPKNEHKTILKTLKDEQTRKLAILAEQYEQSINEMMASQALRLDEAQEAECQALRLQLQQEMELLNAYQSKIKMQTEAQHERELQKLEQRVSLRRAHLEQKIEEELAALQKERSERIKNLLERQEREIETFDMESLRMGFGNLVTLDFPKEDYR
Chain of CDK8 (human) (P49336 whole entry, looked up): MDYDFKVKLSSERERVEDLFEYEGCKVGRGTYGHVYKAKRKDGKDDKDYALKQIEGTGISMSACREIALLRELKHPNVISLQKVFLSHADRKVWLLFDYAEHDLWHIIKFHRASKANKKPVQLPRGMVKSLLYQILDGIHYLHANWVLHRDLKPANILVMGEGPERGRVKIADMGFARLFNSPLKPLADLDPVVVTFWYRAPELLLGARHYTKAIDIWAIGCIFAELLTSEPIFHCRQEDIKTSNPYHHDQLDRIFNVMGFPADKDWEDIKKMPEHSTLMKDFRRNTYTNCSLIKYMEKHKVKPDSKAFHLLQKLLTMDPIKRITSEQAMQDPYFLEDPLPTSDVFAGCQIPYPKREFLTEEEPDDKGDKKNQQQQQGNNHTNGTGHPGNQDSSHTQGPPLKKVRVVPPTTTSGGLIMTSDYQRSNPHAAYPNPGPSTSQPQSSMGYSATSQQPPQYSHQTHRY

Compound	kinase still bound, per cent of control (ANKK1 (human)) [%]	kinase still bound, per cent of control (CDK15 (human)) [%]	kinase still bound, per cent of control (CDK8 (human)) [%]	kinase still bound, per cent of control (CHEK2 (human)) [%]	kinase still bound, per cent of control (CSNK2A1 (human)) [%]	kinase still bound, per cent of control (CaMK1 (human)) [%]	kinase still bound, per cent of control (DAPK1 (human)) [%]	kinase still bound, per cent of control (EPHA2 (human)) [%]	kinase still bound, per cent of control (FGR (human)) [%]	kinase still bound, per cent of control (FLT1 (human)) [%]	kinase still bound, per cent of control (HCK (human)) [%]	kinase still bound, per cent of control (IKBKB (human)) [%]	kinase still bound, per cent of control (MAP3K1 (human)) [%]	kinase still bound, per cent of control (MAP3K3 (human)) [%]	kinase still bound, per cent of control (MAP3K4 (human)) [%]	kinase still bound, per cent of control (MAP4K4 (human)) [%]	kinase still bound, per cent of control (MAPK13 (human)) [%]	kinase still bound, per cent of control (MKNK1 (human)) [%]	kinase still bound, per cent of control (NEK1 (human)) [%]	kinase still bound, per cent of control (NTRK3 (human)) [%]	further results
C=CC(=O)Nc1cc(-n2c(=O)ccc3cnc4ccc(-c5cn[nH]c5)cc4c32)ccc1C	82	49	93	87	4.6	96	70	85	57	100	100	73	97	91	100	60	76	39	93	93	kinase still bound, per cent of control (NUAK2 (human)): 46%; kinase still bound, per cent of control (PDGFRA (human)): 21%; kinase still bound, per cent of control (PIK3C2B (human)): 53%; kinase still bound, per cent of control (PRKACA (human)): 100%; kinase still bound, per cent of control (PRKCH (human)): 100%; kinase still bound, per cent of control (PRKG1 (human)): 91%; kinase still bound, per cent of control (PRKG2 (human)): 78%; kinase still bound, per cent of control (RIOK2 (human)): 12%; kinase still bound, per cent of control (RPS6KA2 KD1 (human)): 72%; kinase still bound, per cent of control (RPS6KA3 KD1 (human)): 69%; kinase still bound, per cent of control (RPS6KA5 KD1 (human)): 100%; kinase still bound, per cent of control (RPS6KA6 KD2 (human)): 67%; kinase still bound, per cent of control (SIK2 (human)): 62%; kinase still bound, per cent of control (SRPK2 (human)): 96%; kinase still bound, per cent of control (STK17A (human)): 100%; kinase still bound, per cent of control (TAOK3 (human)): 47%; kinase still bound, per cent of control (TGFBR1 (human)): 83%; kinase still bound, per cent of control (TGFBR2 (human)): 82%; kinase still bound, per cent of control (TLK1 (human)): 100%; kinase still bound, per cent of control (WEE2 (human)): 95%
O=C(Nc1cccc(Nc2ncc(Br)c(NCCc3cnc[nH]3)n2)c1)N1CCCC1	4.3	25	97	24	0.3	11	1.2	60	13	0.6	42	8.4	34	0.3	47	2.4	11	100	30	2.6	kinase still bound, per cent of control (NUAK2 (human)): 3.8%; kinase still bound, per cent of control (PDGFRA (human)): 0.1%; kinase still bound, per cent of control (PIK3C2B (human)): 89%; kinase still bound, per cent of control (PRKACA (human)): 0.95%; kinase still bound, per cent of control (PRKCH (human)): 33%; kinase still bound, per cent of control (PRKG1 (human)): 72%; kinase still bound, per cent of control (PRKG2 (human)): 4.8%; kinase still bound, per cent of control (RIOK2 (human)): 36%; kinase still bound, per cent of control (RPS6KA2 KD1 (human)): 7.6%; kinase still bound, per cent of control (RPS6KA3 KD1 (human)): 0.5%; kinase still bound, per cent of control (RPS6KA5 KD1 (human)): 57%; kinase still bound, per cent of control (RPS6KA6 KD2 (human)): 10%; kinase still bound, per cent of control (SIK2 (human)): 8%; kinase still bound, per cent of control (SRPK2 (human)): 5.4%; kinase still bound, per cent of control (STK17A (human)): 0.2%; kinase still bound, per cent of control (TAOK3 (human)): 0.1%; kinase still bound, per cent of control (TGFBR1 (human)): 77%; kinase still bound, per cent of control (TGFBR2 (human)): 100%; kinase still bound, per cent of control (TLK1 (human)): 37%; kinase still bound, per cent of control (WEE2 (human)): 36%
